From patent US20220119354A1, “DIAMINO-SUBSTITUTED PYRIDINES AND PYRIMIDINES AS HERBICIDES” (FMC Corporation, priority 2019, published 2022)

Columns and labels:
Type in all cases: in vivo
[1] = system: ragweed (common ragweed, Ambrosia elatior); assay: Test A postemergence, ragweed; conditions: 0 to 100 scale
Outline: (§1)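 Visual injury scores (0 no effect to 100 complete control) were assigned about 10 d after treatment by comparison with untreated controls. Test chemicals, formulated in a surfactant-containing non-phytotoxic solvent, were applied to soil at planting or to plants at the one- to two-leaf stage.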

kochia (Kochia scoparia) [2] = assay: Test A postemergence, kochia; conditions: 0 to 100 scale
Outline: as §1

corn (Zea mays) = assay: Test A postemergence, corn; conditions: 0 to 100 scale
Outline: as §1

[3] = system: barnyardgrass (Echinochloa crus-galli); assay: Test A preemergence, barnyardgrass; conditions: 0 to 100 scale; for Barnyardgrass plant response rating: 0 is no effect, 100 is complete control
Outline: as §1

[4] = system: ducksalad (Heteranthera limosa); assay: Test B flooded paddy test, ducksalad; conditions: Flood, 250 g ai/ha, applied to paddy water, 2-leaf stage, visual evaluation after 13 to 15 d
Outline: (§2)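 Application was made into paddy water of pots flooded 3 cm deep at treatment, with seedlings at the 2-leaf stage. That flood level was kept throughout, and plants stayed under glass 13 to 15 d before visual assessment on a 0–100 control scale.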

[5] = system: ryegrass, Italian (Lolium multiflorum); assay: Test A preemergence, Italian ryegrass; conditions: 0 to 100 scale; for Ryegrass, Italian plant response rating: 0 is no effect, 100 is complete control
Outline: as §1

rice (Oryza sativa) = assay: Test B flooded paddy test, rice; conditions: Flood, 250 g ai/ha, applied to paddy water, 2-leaf stage, visual evaluation after 13 to 15 d
Outline: as §2

[6] = system: sedge, umbrella (small-flower umbrella sedge, Cyperus difformis); assay: Test B flooded paddy test, umbrella sedge; conditions: Flood, 250 g ai/ha, applied to paddy water, 2-leaf stage, visual evaluation after 13 to 15 d
Outline: as §2

[7] = system: ryegrass, Italian (Lolium multiflorum); assay: Test A postemergence, Italian ryegrass; conditions: 0 to 100 scale
Outline: as §1

[8] = system: barnyardgrass (Echinochloa crus-galli); assay: Test B flooded paddy test, barnyardgrass; conditions: Flood, 250 g ai/ha, applied to paddy water, 2-leaf stage, visual evaluation after 13 to 15 d
Outline: as §2

[9] = system: ragweed (common ragweed, Ambrosia elatior); assay: Test A preemergence, ragweed; conditions: 0 to 100 scale; for Ragweed plant response rating: 0 is no effect, 100 is complete control
Outline: as §1

[10] = system: barnyardgrass (Echinochloa crus-galli); assay: Test A postemergence, barnyardgrass; conditions: 0 to 100 scale
Outline: as §1

[11] = system: foxtail, green (Setaria viridis); assay: Test A preemergence, green foxtail; conditions: 0 to 100 scale
From the text: (§3) Seeds of plant species selected from barnyardgrass (Echinochloa crus-galli), kochia (Kochia scoparia), ragweed (common ragweed, Ambrosia elatior), ryegrass, Italian (Lolium multiflorum), foxtail, giant (Setaria faberii), foxtail, green (Setaria viridis), and pigweed (Amaranthus retroflexus) were planted into a blend of loam soil and sand and treated preemergence with a directed soil spray using test chemicals formulated in a non-phytotoxic solvent mixture which included a surfactant.
(§4) At the same time, plants selected from these weed species and also wheat (Triticum aestivum), corn (Zea mays), blackgrass (Alopecurus myosuroides), and galium (catchweed bedstraw, Galium aparine) were planted in pots containing the same blend of loam soil and sand and treated with postemergence applications of test chemicals formulated in the same manner. Plants ranged in height from 2 to 10 cm and were in the one- to two-leaf stage for the postemergence treatment. Treated plants and untreated controls were maintained in a greenhouse for approximately 10 d, after which time all treated plants were compared to untreated controls and visually evaluated for injury. Plant response ratings, summarized in Table A, are based on a 0 to 100 scale where 0 is no effect and 100 is complete control. A dash (-) response means no test result.

[12] = system: pigweed (Amaranthus retroflexus); assay: Test A postemergence, pigweed; conditions: 0 to 100 scale
Outline: as §1

[13] = system: pigweed (Amaranthus retroflexus); assay: Test A preemergence, pigweed; conditions: 0 to 100 scale; for Pigweed plant response rating: 0 is no effect, 100 is complete control
Outline: as §1

[14] = system: galium (catchweed bedstraw, Galium aparine); assay: Test A postemergence, galium; conditions: 0 to 100 scale
Outline: as §1

[15] = system: wheat (Triticum aestivum); assay: Test A postemergence, wheat; conditions: 0 to 100 scale
Outline: as §1

[16] = system: blackgrass (Alopecurus myosuroides); assay: Test A postemergence, blackgrass; conditions: 0 to 100 scale
Outline: as §1

kochia (Kochia scoparia) [17] = assay: Test A preemergence, kochia; conditions: 0 to 100 scale; for Kochia plant response rating: 0 is no effect, 100 is complete control
Outline: as §1

[18] = system: foxtail, green (Setaria viridis); assay: Test A postemergence, green foxtail; conditions: 0 to 100 scale
From the text: as §3, §4

[19] = system: foxtail, giant (Setaria faberii); assay: Test A postemergence, giant foxtail; conditions: 0 to 100 scale, 0 no effect, 100 complete control
Outline: as §1

[20] = system: foxtail, giant (Setaria faberii); assay: Test A preemergence, giant foxtail; conditions: 0 to 100 scale, 0 is no effect, 100 is complete control
Outline: as §1

[21] = 31 g ai/ha, 0 no effect, 100 complete control
[22] = 125 g ai/ha, 0 no effect, 100 complete control

Compound: CC(CCc1ccccc1)Nc1ncc(C(F)(F)F)c(N)n1 (stereo not drawn) [Compound 23]
- Plant response rating, Ragweed ([1]; 125 g ai/ha): 0
- Plant response rating, Ragweed ([1]; 500 g ai/ha): 0
- Plant response rating, Kochia (kochia (Kochia scoparia) [2]; 125 g ai/ha): 0
- Plant response rating, Kochia (kochia (Kochia scoparia) [2]; 500 g ai/ha): 0
- Plant response rating, Corn (corn (Zea mays); 125 g ai/ha): 0
- Plant response rating, Corn (corn (Zea mays); 500 g ai/ha): 0
- Plant response rating, Barnyardgrass ([3]; 125 g ai/ha): 0
- Plant response rating, Barnyardgrass ([3]; 500 g ai/ha): 0
- Plant response rating, Ducksalad (0 to 100 scale, 0 is no effect, 100 is complete control) [4]: 0
- Plant response rating, Ryegrass, Italian ([5]; 125 g ai/ha): 0
- Plant response rating, Ryegrass, Italian ([5]; 500 g ai/ha): 0
- Plant response rating, Rice (0 to 100 scale, 0 is no effect, 100 is complete control) (rice (Oryza sativa)): 0
- Plant response rating, Sedge, Umbrella (0 to 100 scale, 0 is no effect, 100 is complete control) [6]: 0
- Plant response rating, Ryegrass, Italian ([7]; 125 g ai/ha): 0
- Plant response rating, Ryegrass, Italian ([7]; 500 g ai/ha): 0
- Plant response rating, Barnyardgrass (0 to 100 scale, 0 is no effect, 100 is complete control) [8]: 0
- Plant response rating, Ragweed ([9]; 125 g ai/ha): 0
- Plant response rating, Ragweed ([9]; 500 g ai/ha): 0
- Plant response rating, Barnyardgrass ([10]; 125 g ai/ha): 0
- Plant response rating, Barnyardgrass ([10]; 500 g ai/ha): 0
- Plant response rating, Foxtail, Green ([11]; 125 g ai/ha): 0
- Plant response rating, Foxtail, Green ([11]; 500 g ai/ha): 0
- Plant response rating, Pigweed ([12]; 125 g ai/ha): 0
- Plant response rating, Pigweed ([12]; 500 g ai/ha): 0
- Plant response rating, Pigweed ([13]; 125 g ai/ha): 0
- Plant response rating, Pigweed ([13]; 500 g ai/ha): 50
- Plant response rating, Galium ([14]; 125 g ai/ha): 0
- Plant response rating, Galium ([14]; 500 g ai/ha): 0
- Plant response rating, Wheat ([15]; 125 g ai/ha): 0
- Plant response rating, Wheat ([15]; 500 g ai/ha): 0
- Plant response rating, Blackgrass ([16]; 125 g ai/ha): 0
- Plant response rating, Blackgrass ([16]; 500 g ai/ha): 0
- Plant response rating, Kochia (kochia (Kochia scoparia) [17]; 125 g ai/ha): 0
- Plant response rating, Kochia (kochia (Kochia scoparia) [17]; 500 g ai/ha): 0
- Plant response rating, Foxtail, Green ([18]; 125 g ai/ha): 0
- Plant response rating, Foxtail, Green ([18]; 500 g ai/ha): 0

Compound: C[C@@H](Nc1ncc(C(F)(F)F)c(N)n1)c1cc2c(Cl)cccc2s1 [Compound 116]
- Plant response rating, Ragweed [1, 21]: 40
- Plant response rating, Ragweed [1, 22]: 60
- Plant response rating, Kochia (kochia (Kochia scoparia) [2]; [21]): 30
- Plant response rating, Kochia (kochia (Kochia scoparia) [2]; [22]): 80
- Plant response rating, Corn (corn (Zea mays); [21]): 20
- Plant response rating, Corn (corn (Zea mays); [22]): 30
- Barnyardgrass plant response rating ([3]; 31 g ai/ha): 0
- Barnyardgrass plant response rating ([3]; 125 g ai/ha): 30
- Plant response rating, Ducksalad (0 to 100 scale, 0 is no effect, 100 is complete control) [4]: 60
- Ryegrass, Italian plant response rating ([5]; 31 g ai/ha): 20
- Ryegrass, Italian plant response rating ([5]; 125 g ai/ha): 40
- Plant response rating, Rice (0 to 100 scale, 0 is no effect, 100 is complete control) (rice (Oryza sativa)): 0
- Plant response rating, Sedge, Umbrella (0 to 100 scale, 0 is no effect, 100 is complete control) [6]: 65
- Plant response rating, Ryegrass, Italian [7, 21]: 30
- Plant response rating, Ryegrass, Italian [7, 22]: 30
- Plant response rating, Barnyardgrass (0 to 100 scale, 0 is no effect, 100 is complete control) [8]: 35
- Plant response rating, Foxtail, Giant ([19]; 31 g ai/ha): 10
- Plant response rating, Foxtail, Giant ([19]; 125 g ai/ha): 90
- Ragweed plant response rating ([9]; 31 g ai/ha): 60
- Ragweed plant response rating ([9]; 125 g ai/ha): 70
- Plant response rating, Barnyardgrass [10, 21]: 10
- Plant response rating, Barnyardgrass [10, 22]: 50
- Plant response rating, Pigweed [12, 21]: 90
- Plant response rating, Pigweed [12, 22]: 100
- Pigweed plant response rating ([13]; 31 g ai/ha): 40
- Pigweed plant response rating ([13]; 125 g ai/ha): 80
- Plant response rating, Galium [14, 21]: 60
- Plant response rating, Galium [14, 22]: 80
- Foxtail, Giant plant response rating ([20]; 31 g ai/ha): 20
- Foxtail, Giant plant response rating ([20]; 125 g ai/ha): 60
- Plant response rating, Wheat [15, 21]: 0
- Plant response rating, Wheat [15, 22]: 0
- Plant response rating, Blackgrass [16, 21]: 0
- Plant response rating, Blackgrass [16, 22]: 0
- Kochia plant response rating (kochia (Kochia scoparia) [17]; 31 g ai/ha): 30
- Kochia plant response rating (kochia (Kochia scoparia) [17]; 125 g ai/ha): 40
